Data on two molecules can be found in patent publication US7491849B2, “Oligoamine compounds and derivatives thereof for cancer therapy” (priority 2001, dated 2009).

In data set [1] the test system is DU-145 human prostate tumor xenografts. Description: Subcutaneous DU-145 prostate tumor xenograft in mice. Type of data set: in vivo, male NCr-nu mice. Particulars: for Days Delay (T-C) / Non-Specific Deaths/Total / Tumor Free Survival/Total / Tumor Regression, Number of Complete / Tumor Regression, Number of Partial / Days to 4 Doublings / % T/C, Day 21 (median tumor weight) / % T/C, Day 35 (median tumor weight) / median tumor growth delay [(T-C)/C x 100] / tolerability / deaths: 6.25 mg/kg IV; for Days Delay (T-C) / Non-Specific Deaths/Total / Tumor Free Survival/Total / Tumor Regression, Number of Complete / Tumor Regression, Number of Partial / Days to 4 Doublings / % T/C, Day 21 (median tumor weight) / % T/C, Day 35 (median tumor weight): Q1D x 5 day 14, 28; for Days to 4 Doublings: control 17.1; for % T/C, Day 21 (median tumor weight): three days after first round; for % T/C, Day 35 (median tumor weight): three days after second round; for median tumor growth delay [(T-C)/C x 100]: two rounds, statistically significant; for antitumor activity (summary): at a dosage which was well tolerated (6.25 mg/kg IV). The procedure:
Response of implanted sc DU-145 prostate tumors to treatment with SL-11159 and SL-11226. This experiment evaluates the antitumor efficacy of SLIL Biomedical Corporation compounds (SL-11159, SL-11226) against subcutaneously-implanted DU-145 human prostate tumor xenografts in male NCr-nu (line 3A10F17T1) mice. All compounds were tested at a single dose level when administered intravenously (iv), at 6.25 mg/kg. Both SL-11159 and SL-11226 were prepared in water for injection (soluble); the injection volume was 0.1 mL/10 g body weight.
All compounds were administered for two rounds of five daily treatments with a nine-day rest period between the rounds. The control group was treated with vehicle (water for injection) for two rounds on a Q1D×5 schedule. There were sixteen mice in the control group and eight mice in each of the treatment groups. All treatments were initiated on day 14 postimplant when all mice had established tumors ranging in size from 75 to 198 mg. The experiment was terminated on day 53 after tumor implantation. The individual animal's time to reach the evaluation size (time to reach four doublings) was used in the calculations of the median tumor growth delay [(T−C)/C×100, %] and as the endpoint in a life tables analysis (stratified Kaplan-Meier estimation followed by the Mantel-Haenszel log-rank test) in order to statistically compare the growth data between groups (see Table 5; group 1 is the control group, group 2 was treated with SL-11159, group 3 was treated with SL-11226).
The time required for a tumor to double in mass is calculated based on the initial tumor weight at the beginning of the treatment period. When the initial tumor weight has been selected, tumor weights are then examined, beginning with the last recorded value, until a doubling is calculated. Examination from the last recorded value is to ensure that the doubling time is calculated during the final phase of tumor growth and not prior to a tumor regression. Values between measurements are calculated by exponential […], and a value may be estimated after the final measured weight provided the extrapolated value occurs prior to the animal's death.)
Control tumors grew well in fourteen out of sixteen mice. There was one xenograft failure (no-take). One animal died during the second round of the vehicle treatment, on day 29, with a tumor weight of 770 mg. Tumors reached the evaluation size of four mass doublings in 17.1 days, which covers the period of the first round of treatment and three days of the second round of treatment. The effect of each round of treatment was evaluated by the comparison of the median tumor weight of the treated groups on days 21 or 35 (three days after the end of the first or the second round of treatment, respectively) to the median tumor weight of the control group on the same day (T/C×100%, see Table 4A).
Tumor regression was scored (excluding nonspecific deaths), according to the smallest tumor size attained after the beginning of treatment relative to the size at first treatment: • partial: <50 percent of its size at 1 st rx, but not complete. • complete: tumor becomes unpalpable.
Duration of regression: the interval during which a tumor classified as a partial or complete regressor was below 50 percent of its size at first treatment.
Evaluation size: this value is the tumor mass selected at four mass doublings beginning with the initial tumor size at the start of treatment.
T−C (days): the difference in the median of times postimplant for tumors of the treated groups to attain an evaluation size compared to the median of the control group.

In another data set the test system is PC-3 Cells. The data set is described as follows: Colony forming assay (CFE), PC-3 cells. Type of data set: cell-based. Particulars: ca. 1.5-2 μM, 5 days incubation, FIG. 2. The procedure:
Assessment of Oligoamine Cytotoxicity by Colony Forming Assay. The cytotoxicity of the oligoamines was further assayed by the colony forming assay (CFE). Four saturated oligoamines were chosen for their ability to kill DuPro cells after 5 days of incubation. Oligoamines SL-11159, SL-11175 and SL-11226 had over 4 logs of cell kill on day 5 of treatment at 1-2 μM concentrations; see FIG. 1. […] The colony forming assay was performed as follows.
Colony Forming Efficiency Assay. All cell lines used in this assay have already been optimized with respect to the number of feeder cells and length of incubation time for observable colony formation. Cells were washed, harvested, and replated in quadruplicate at appropriate dilution into 60 mm plastic Petri dishes. The Petri dishes were prepared not more than 24 hr in advance with 4 ml of supplemented Eagle's minimum essential medium containing 5-10% fetal bovine serum (standardized for each cell line) for all cell lines. Cells were incubated for the previously standardized number of days in a 95% air/5% CO2 atmosphere. The plates were stained with 0.125% crystal violet in methanol and counted. Results are expressed as the surviving fraction of an appropriate control.

Where only a bound is given, the exact number is not on record here.

In the case of `CCNCCCCNCCCCNCCCCNCCCCNCCCCNCCCCNCCCCNCCCCNCCCCNCCCCNCCCCNCC.Cl.Cl.Cl.Cl.Cl.Cl.Cl.Cl.Cl.Cl.Cl.Cl` [SL-11226], in data set [1], the “Days Delay (T-C)” value is over 6.4 days; the “Non-Specific Deaths/Total” value was 0/8; the “Tumor Free Survival/Total” value is reported as 0/8; the “Tumor Regression, Number of Complete” value is given as 0. In addition, in data set [1], the “Tumor Regression, Number of Partial” value came to 0; the “Days to 4 Doublings” value is over 23.5 days; the “% T/C, Day 21 (median tumor weight)” value was found to be 46%; the “% T/C, Day 35 (median tumor weight)” value is listed as 61%. Moreover, in data set [1], the “median tumor growth delay [(T-C)/C x 100]” value was over 37% and the “antitumor activity (summary)” value is reported as “measurable antitumor activity”. The tolerability / deaths entry in data set [1] (whole treatment (two rounds)) is recorded as “well tolerated without deaths”.
Take `CCNCCCCNCCCCNCCCCNCCCCNCCCCNCCCCNCCCCNCCCCNCCCCNCC.Cl.Cl.Cl.Cl.Cl.Cl.Cl.Cl.Cl.Cl` [SL-11159]: the “logs of cells killed (colony survival)” value in the data set with PC-3 Cells is on record as “four”. Moreover, in data set [1], the “Days Delay (T-C)” value is over 6.9 days; the “Non-Specific Deaths/Total” value is listed as 1/8; the “Tumor Free Survival/Total” value is 0/8; the “Tumor Regression, Number of Complete” value was 0. Further, in data set [1], the “Tumor Regression, Number of Partial” value was determined as 0; the “Days to 4 Doublings” value is over 24.0 days; the “% T/C, Day 21 (median tumor weight)” value is given as 65%; the “% T/C, Day 35 (median tumor weight)” value is 63%. In data set [1], the “median tumor growth delay [(T-C)/C x 100]” value is reported as over 40% and the “antitumor activity (summary)” value is recorded as “measurable antitumor activity”. In addition, the tolerability / deaths result in data set [1] (first round of treatment) is listed as “well tolerated without deaths”. Further, the tolerability / deaths result in data set [1] (second round of treatment) is on record as “death of one animal”.
